Assay results published in patent US20250098679A1, “HERBICIDAL PYRIDONE DERIVATIVES” (SYNGENTA CROP PROTECTION AG, priority 2021, published 2025).

Assays:
Assay type in all cases: in vivo
Details in all cases: evaluated after 13 days
[1] = system: Echinochloa crus-galli (ECHCG); test: Post-emergence Test, Echinochloa crus-galli (ECHCG); parameters: key to percentage damage caused to the plant, ECHCG (five-point scale): 5=81-100%, 4=61-80%, 3=41-60%, 2=21-40%, 1=0-20% damage
Method in brief: (§1)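 Percent plant damage was rated 13 days post-application on a 1–5 scale (1=0-20%, 5=81-100%). Application used an aqueous acetone (50:50)/0.5% Tween 20 spray, normally 1000 g/ha, with controlled glasshouse conditions (24/16 °C, 14 h light, 65% humidity).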

[2] = system: Amaranthus retoflexus (AMARE); test: Pre-emergence Test, Amaranthus retoflexus (AMARE)
[3] = system: Amaranthus palmeri (AMAPA); test: Pre-emergence Test, Amaranthus palmeri (AMAPA)
[4] = system: Ipomoea hederacea (IPOHE); test: Post-emergence Test, Ipomoea hederacea (IPOHE); parameters: key to percentage damage caused to the plant, IPOHE (five-point scale): 5=81-100%, 4=61-80%, 3=41-60%, 2=21-40%, 1=0-20% damage
Method in brief: as §1

Zea mays (ZEAMX) [5] = test: Pre-emergence Test, Zea mays (ZEAMX)
Setaria faberi (SETFA) [6] = test: Pre-emergence Test, Setaria faberi (SETFA)
[7] = system: Amaranthus retoflexus (AMARE); test: Post-emergence Test, Amaranthus retoflexus (AMARE); parameters: key to percentage damage caused to the plant, AMARE (five-point scale): 5=81-100%, 4=61-80%, 3=41-60%, 2=21-40%, 1=0-20% damage
Method in brief: as §1

[8] = system: Echinochloa crus-galli (ECHCG); test: Pre-emergence Test, Echinochloa crus-galli (ECHCG)
[9] = system: Amaranthus palmeri (AMAPA); test: Post-emergence Test, Amaranthus palmeri (AMAPA); parameters: key: 5=81-100%, 4=61-80%, 3=41-60%, 2=21-40%, 1=0-20% damage
Method in brief: as §1

Setaria faberi (SETFA) [10] = test: Post-emergence Test, Setaria faberi (SETFA); parameters: key to percentage damage caused to the plant, SETFA (five-point scale): 5=81-100%, 4=61-80%, 3=41-60%, 2=21-40%, 1=0-20% damage
Method in brief: as §1

[11] = system: Ipomoea hederacea (IPOHE); test: Pre-emergence Test, Ipomoea hederacea (IPOHE)
Zea mays (ZEAMX) [12] = test: Post-emergence Test, Zea mays (ZEAMX); parameters: key to percentage damage caused to the plant, ZEAMX (five-point scale): 5=81-100%, 4=61-80%, 3=41-60%, 2=21-40%, 1=0-20% damage
Method in brief: as §1

SMILES | percentage damage caused to the plant, ECHCG (five-point scale) ([1]; 1000 g/ha) | Pre-emergence Test AMARE, percentage damage caused to the plant (five-point scale) ([2]; 1000 g/ha) | Pre-emergence Test AMAPA, percentage damage caused to the plant (five-point scale) ([3]; 1000 g/ha) | percentage damage caused to the plant, IPOHE (five-point scale) ([4]; 1000 g/ha) | Pre-emergence Test ZEAMX, percentage damage caused to the plant (five-point scale) (Zea mays (ZEAMX) [5]; 1000 g/ha) | Pre-emergence Test SETFA, percentage damage caused to the plant (five-point scale) (Setaria faberi (SETFA) [6]; 1000 g/ha) | percentage damage caused to the plant, AMARE (five-point scale) ([7]; 1000 g/ha) | Pre-emergence Test ECHCG, percentage damage caused to the plant (five-point scale) ([8]; 1000 g/ha) | percentage damage caused to the plant, AMAPA (five-point scale) ([9]; 1000 g/ha) | percentage damage caused to the plant, SETFA (five-point scale) (Setaria faberi (SETFA) [10]; 1000 g/ha) | Pre-emergence Test IPOHE, percentage damage caused to the plant (five-point scale) ([11]; 1000 g/ha) | percentage damage caused to the plant, ZEAMX (five-point scale) (Zea mays (ZEAMX) [12]; 1000 g/ha) | percentage damage caused to the plant, ECHCG (five-point scale) ([1]; 250 g/Ha) | Pre-emergence Test AMARE, percentage damage caused to the plant (five-point scale) ([2]; 250 g/Ha (*)) | Pre-emergence Test AMAPA, percentage damage caused to the plant (five-point scale) ([3]; 250 g/Ha (*)) | percentage damage caused to the plant, IPOHE (five-point scale) ([4]; 250 g/Ha) | percentage damage caused to the plant, AMARE (five-point scale) ([7]; 250 g/Ha) | percentage damage caused to the plant, AMAPA (five-point scale) ([9]; 250 g/Ha) | percentage damage caused to the plant, SETFA (five-point scale) (Setaria faberi (SETFA) [10]; 250 g/Ha) | percentage damage caused to the plant, ZEAMX (five-point scale) (Zea mays (ZEAMX) [12]; 250 g/Ha) | other results
CCn1c(Cn2nc(C(F)(F)F)cc2O)cc(=O)c(C(=O)O)c1-c1ccc(Cl)c(Cl)c1 [Compound 147, 2-(3,4-dichlorophenyl)-1-ethyl-6-[[5-hydroxy-3-(trifluoromethyl)pyrazol-1-yl]methyl]-4-oxo-pyridine-3-carboxylic acid] | 0 | 0 | 1 (1=0-20%) | 1 (1=0-20%) | 0 | 1 (1=0-20%) | 1 (1=0-20%) | 0 | 0 | 0 | 0 | 0 | – | – | – | – | – | – | – | – | –
CCOc1cc(C(F)(F)F)nn1Cc1cc(=O)c(C(=O)O)c(-c2ccc(Cl)c(Cl)c2)n1CC [Compound 148, 2-(3,4-dichlorophenyl)-6-[[5-ethoxy-3-(trifluoromethyl)pyrazol-1-yl]methyl]-1-ethyl-4-oxo-pyridine-3-carboxylic acid] | 4 (4=61-80%) | 0 | 1 (1=0-20%) | 2 (2=21-40%) | 0 | 5 (5=81-100%) | 3 (3=41-60%) | 2 (2=21-40%) | 3 (3=41-60%) | 4 (4=61-80%) | 2 (2=21-40%) | 2 (2=21-40%) | 2 (2=21-40%) | 0 | 0 | 2 (2=21-40%) | 1 (1=0-20%) | 1 (1=0-20%) | 3 (3=41-60%) | 1 (1=0-20%) | Pre-emergence Test ZEAMX, percentage damage caused to the plant (five-point scale) (Zea mays (ZEAMX) [5]; 250 g/Ha (*)): 0; Pre-emergence Test SETFA, percentage damage caused to the plant (five-point scale) (Setaria faberi (SETFA) [6]; 250 g/Ha (*)): 2 (2=21-40%); Pre-emergence Test ECHCG, percentage damage caused to the plant (five-point scale) ([8]; 250 g/Ha (*)): 0; Pre-emergence Test IPOHE, percentage damage caused to the plant (five-point scale) ([11]; 250 g/Ha (*)): 0
CCOc1cc(C)nn1Cc1cc(=O)c(C(=O)O)c(-c2ccc(Cl)c(Cl)c2)n1CC [Compound 149, 2-(3,4-dichlorophenyl)-6-[(5-ethoxy-3-methyl-pyrazol-1-yl)methyl]-1-ethyl-4-oxo-pyridine-3-carboxylic acid] | 4 (4=61-80%) | 1 (1=0-20%) | 3 (3=41-60%) | 2 (2=21-40%) | 0 | 4 (4=61-80%) | 2 (2=21-40%) | 1 (1=0-20%) | 1 (1=0-20%) | 3 (3=41-60%) | 0 | 2 (2=21-40%) | 1 (1=0-20%) | – | – | 1 (1=0-20%) | 0 | 0 | 1 (1=0-20%) | 0 | –
CCn1c(Cn2nc(C)cc2OC(F)F)cc(=O)c(C(=O)O)c1-c1ccc(Cl)c(Cl)c1 [Compound 150, 2-(3,4-dichlorophenyl)-6-[[5-(difluoromethoxy)-3-methyl-pyrazol-1-yl]methyl]-1-ethyl-4-oxo-pyridine-3-carboxylic acid] | 4 (4=61-80%) | 1 (1=0-20%) | 2 (2=21-40%) | 2 (2=21-40%) | 3 (3=41-60%) | 5 (5=81-100%) | 2 (2=21-40%) | 5 (5=81-100%) | 1 (1=0-20%) | 4 (4=61-80%) | 4 (4=61-80%) | 3 (3=41-60%) | 2 (2=21-40%) | 0 | 1 (1=0-20%) | 4 (4=61-80%) | 0 | 0 | 4 (4=61-80%) | 1 (1=0-20%) | Pre-emergence Test ZEAMX, percentage damage caused to the plant (five-point scale) (Zea mays (ZEAMX) [5]; 250 g/Ha (*)): 1 (1=0-20%); Pre-emergence Test SETFA, percentage damage caused to the plant (five-point scale) (Setaria faberi (SETFA) [6]; 250 g/Ha (*)): 5 (5=81-100%); Pre-emergence Test ECHCG, percentage damage caused to the plant (five-point scale) ([8]; 250 g/Ha (*)): 4 (4=61-80%); Pre-emergence Test IPOHE, percentage damage caused to the plant (five-point scale) ([11]; 250 g/Ha (*)): 1 (1=0-20%)
